US6183736A, “Small peptides with antipathogenic activity, treated plants and methods for treating same” (USDA/ARS Southern Regional Research Center, priority 1999, dated 2001)
Where two headings read alike, the source gives them in different places. Residues, ends and D or L forms follow the SMILES beside them. No end group written: not given here.

Experiments:
Aspergillus flavus [1] = assay: Disc plate diffusion assay; type: cell-based; conditions: purified peptide on filter paper disc
Method: Mycelium plugs from actively growing fungal cultures were placed in the center of the petri plate. After incubation at 27° C. to allow vegetative growth, samples were applied on sterile filter paper discs laid on the agar surface. Precipitation with ammonium sulfate. The 7th day culture filtrate was sequentially precipitated with 20, 40, 60 and 80% ammonium sulfate. […] After complete purification of the antifungal peptides as described in example 8, removing salt by purification on a […] cartridge (waters) and freeze drying, both peptides were quantified by weight. […] The antifungal assays are described in example 2.

Escherichia coli K12 = conditions: cited from earlier work
Bacillus cereus = conditions: cited from earlier work
Pleospora herbarum = conditions: cited from earlier work
Fusarium oxysporum [2] = conditions: cited from earlier work
[3] = tested on: Trichophyton mentagrophytes; conditions: cited from earlier work
Penicillium chysogenum = conditions: cited from earlier work
Saccharomyces cerevisiae = conditions: cited from earlier work
Azotobacter vinelandii = conditions: cited from earlier work
Sarcinia lutea = conditions: cited from earlier work
Mycosphaerella pinodes = conditions: cited from earlier work
Micrococcus luteus [4] = conditions: cited from earlier work
Neurospora crassa = conditions: cited from earlier work
Rhodotorula pillimanae = conditions: cited from earlier work
Sclerotina fructigena = conditions: cited from earlier work
Streptomyces albus G = conditions: cited from earlier work
Stemphylium radicinum = conditions: cited from earlier work
Aspergillus niger [5] = conditions: cited from earlier work
Sclerotina sclerotiorum = conditions: cited from earlier work
Candida tropicalis = conditions: cited from earlier work
Staphylococcus aureus = conditions: cited from earlier work
Candida albicans [6] = conditions: cited from earlier work
Botrytis cinerea = conditions: cited from earlier work
Brucella brochiseptica = conditions: cited from earlier work
Aspergillus flavus [7] = type: cell-based
Method: Description of the method for the antifungal assays. […] Each well contained 100 μl Potato Dextrose Agar (PDA, Difco Laboratories) and 100 μl of sample and was inoculated with 500 spores of Aspergillus flavus. Fungal growth was monitored by reading optical density (O.D.) at 560 nm (Dynatech microplate reader). […] After complete purification of the antifungal peptides as described in example 8, removing salt by purification on a […] cartridge (waters) and freeze drying, both peptides were quantified by weight. […] The antifungal assays are described in example 2.

Verticillium dahliae = conditions: cited from earlier work
Cryphonectria parasitica = conditions: cited from earlier work
Ceratocystis fagacearum = conditions: cited from earlier work
Ophiostoma ulmi = conditions: cited from earlier work
[8] = tested on: Micrococcus luteus protoplast; conditions: cited from earlier work
Micrococcus luteus [9] = conditions: cited from earlier work; remark: listed apart in the source
[10] = tested on: Cladosporium cladosporioides; conditions: cited from earlier work
Kluyveromyces bulgaris [11] = conditions: cited from earlier work
Fusarium oxysporum [12] = conditions: cited from earlier work; remark: listed apart in the source
Aspergillus niger [13] = conditions: cited from earlier work; remark: listed apart in the source
Saccharomyces cerevisae = conditions: cited from earlier work
Candida albicans [14] = conditions: cited from earlier work; remark: listed apart in the source
Absydia corymbifera = conditions: cited from earlier work
Kluyveromyces bulgaris [15] = conditions: cited from earlier work; remark: listed apart in the source
[16] = tested on: various yeasts, fungi and phytopathogenic fungi; conditions: cited from earlier work
bacteria = conditions: cited from earlier work

a1: cyclic lipopeptide from B. subtilis AU195, bacillomycin D family, [M+H] 1045.5, linearised sequence STNYNPE, β-amino fatty acid believed of 15 carbons (not fully specified; also: cyclic lipopeptide, C15 β-amino fatty acid (hydroxy fatty acid at Thr suggested), sequence given after Glu-C linearisation)
Disc plate diffusion assay Minimal amount to inhibit hyphal growth (Aspergillus flavus [1]): 15 µg

Bacillomycin Fa
MIC (Escherichia coli K12): > 400 µg/mL
MIC (Bacillus cereus): > 400 µg/mL
MIC (Pleospora herbarum): 10 µg/mL
MIC (Fusarium oxysporum [2]): > 320 µg/mL
MIC [3]: 20 µg/mL
MIC (Penicillium chysogenum): 20 µg/mL
MIC (Saccharomyces cerevisiae): 10 µg/mL
MIC (Azotobacter vinelandii): > 400 µg/mL
MIC (Sarcinia lutea): > 400 µg/mL
MIC (Mycosphaerella pinodes): 10 µg/mL
MIC (Micrococcus luteus [4]): 200 µg/mL
MIC (Neurospora crassa): 80 µg/mL
MIC (Rhodotorula pillimanae): 80 µg/mL
MIC (Sclerotina fructigena): 40 µg/mL
MIC (Streptomyces albus G): > 400 µg/mL
MIC (Stemphylium radicinum): 320 µg/mL
MIC (Aspergillus niger [5]): 40 µg/mL
MIC (Sclerotina sclerotiorum): 50 µg/mL
MIC (Candida tropicalis): 40 µg/mL
MIC (Staphylococcus aureus): > 400 µg/mL
MIC (Candida albicans [6]): 40 µg/mL
MIC (Botrytis cinerea): 20 µg/mL
MIC (Brucella brochiseptica): > 400 µg/mL

CCCCCCCCCCCCC[C@@H]1CC(=O)N[C@@H](CC(N)=O)C(=O)N[C@H](Cc2ccc(O)cc2)C(=O)N[C@H](CC(N)=O)C(=O)N2CCC[C@H]2C(=O)N[C@@H](CCC(=O)O)C(=O)N[C@H](CO)C(=O)N[C@@H]([C@@H](C)O)C(=O)N1 [a2] (HELM PEPTIDE1{E.[dS].T.[CCCCCCCCCCCCC[C@H](CC(=O)[*:2])N[*:1]].N.[dY].[dN].P}$PEPTIDE1,PEPTIDE1,1:R1-8:R2$$$V2.0)
Disc plate diffusion assay Minimal amount to inhibit hyphal growth (Aspergillus flavus [1]): 3 µg
Microtiter plate Minimal inhibitory concentration (MIC) (Aspergillus flavus [7]): 130 µM

Bacillomycin Lc
Antifungal activity (Verticillium dahliae): antifungal activity
Antifungal activity (Cryphonectria parasitica): antifungal activity
Antifungal activity (Ceratocystis fagacearum): antifungal activity
Antifungal activity (Ophiostoma ulmi): antifungal activity

Bacillomycin L (DYNSQST; also: cyclic lipopeptide with β-amino fatty acid, ring closure not described) [iturin lipopeptide: Asp Tyr Asn Ser Gln Ser Thr with β amino acid n-C14, i-C15, a-C15]
Lysis of Micrococcus luteus protoplast [8]: no effect
Inhibition of growth of Micrococcus luteus (Micrococcus luteus [9]): inhibited the growth

Bacillomycin Fc
MIC (Fusarium oxysporum [2]): > 200 µg/mL
MIC [10]: 40 µg/mL
MIC (Saccharomyces cerevisiae): 30 µg/mL
MIC (Mycosphaerella pinodes): 30 µg/mL
MIC (Aspergillus niger [5]): 30 µg/mL
MIC (Candida tropicalis): > 200 µg/mL
MIC (Candida albicans [6]): > 200 µg/mL
MIC (Kluyveromyces bulgaris [11]): 40 µg/mL

Iturin A (NYNQPNS; also: cyclic with β-amino fatty acid, ring closure not described) [cyclic lipopeptide of Bacillus subtilis: Asn Tyr Asn Gln Pro Asn Ser with β amino acid n-C14, i-C15, a-C15]
Lysis of Micrococcus luteus protoplast [8]: able to lyse
Inhibition of growth of Micrococcus luteus (Micrococcus luteus [9]): inhibited the growth
Disc plate diffusion assay Minimal amount to inhibit hyphal growth (Aspergillus flavus [1]): > 50 µg
Microtiter plate Minimal inhibitory concentration (MIC) (Aspergillus flavus [7]; Aspergillus flavus, 500 spores per well, O.D. 560 nm): 250 µM

Bacillomycin D (NYNPEST; also: cyclic lipopeptide with β-amino fatty acid, ring closure not described) [iturin lipopeptide: Asn Tyr Asn Pro Glu Ser Thr with β amino acid n-C14, i-C15, a-C15]
Antifungal activity (Fusarium oxysporum [12]): antifungal
Antifungal activity (Aspergillus niger [13]): antifungal
Antifungal activity (Saccharomyces cerevisae): antifungal
Antifungal activity (Candida albicans [14]): antifungal
Antifungal activity (Absydia corymbifera): antifungal
Antifungal activity (Kluyveromyces bulgaris [15]): antifungal

Bacillomycin F (NYNQPNT; also: cyclic lipopeptide with β-amino fatty acid, ring closure not described) [iturin lipopeptide: Asn Tyr Asn Gln Pro Asn Thr with β amino acid i-C16, i-C17, a-C17]
Antifungal activity [16]: strong antifungal activity
Antibacterial activity (bacteria): weak antibacterial activity

Mycosubtilin (NYNQPSN; also: cyclic lipopeptide with β-amino fatty acid, ring closure not described) [Mycosubtlin, iturin lipopeptide: Asn Tyr Asn Gln Pro Ser Asn with β amino acid i-C16, a-C17]
Lysis of Micrococcus luteus protoplast [8]: able to lyse
Inhibition of growth of Micrococcus luteus (Micrococcus luteus [9]): inhibited the growth

Bacillomycin Fb
MIC (Fusarium oxysporum [2]): > 200 µg/mL
MIC [10]: 25 µg/mL
MIC (Saccharomyces cerevisiae): 25 µg/mL
MIC (Mycosphaerella pinodes): 100 µg/mL
MIC (Aspergillus niger [5]): 25 µg/mL
MIC (Candida tropicalis): > 200 µg/mL
MIC (Candida albicans [6]): > 200 µg/mL
MIC (Kluyveromyces bulgaris [11]): 75 µg/mL
